From US8017124B2, “Use of DMBT1 for capturing sulphate and phosphate group exposing agents” (priority 2004, dated 2011)
Read-outs that look alike come from different tables or passages of the source.

Key:
DMBT1pbs1 = target: T1, DMBT1pbs1 (Homo sapiens, UniProt Q9UGM3); format: binding; parameters: key: +++: no difference in aggregation compared to reference; ++: moderate inhibition of aggregation over the entire time course or maximal aggregation delayed by 1-5-min compared to reference; +: strong inhibition of aggregation over the entire time course or maximal aggregation delayed by 5-10 min compared to reference; −: complete inhibition of aggregation after 10 min; conditions: pH co
T1 construct: purchased Eurogentec, Belgium
Procedure: Streptococcus mutans (Ingbritt), Streptococcus gordonii (HG 222 and DSM20568), Escherichia coli (F7 and OM36-1), and Helicobacter pylori (ATCC 43504) were gown and processed as described earlier. Salmonella typhimurium (strain SF1399: wild type; strain SF1195: Rc chemotype; strain SF1567: Rd1 chemotype; strain SF1398: Re chemotype) were kindly provided by Dr. Ben Appelmelk from the Free University of Amsterdam, The Netherlands, and were grown and processed as previously described for E. coli. The bacteria were diluted in the buffers depicted previously to a final OD700 of 0.5 or 1.0 corresponding to about 0.5 and 1.0×10^9 cells/ml respectively.
For quantitative measurements of bacterial aggregation, we added 200 μl peptide stock solution (1 mg/ml in 10% DMSO) diluted with 300 μl TBS containing 0.1% v/v Tween 20 and 1 mM CaCl2 (TBS-TC) to 500 μl of the respective bacterial suspensions to obtain final peptide concentrations of […]. As controls, we used bacterial suspensions, to which 200 μl 10% (v/v %) DMSO in H2O and 300 μl TBS-TC were added. Bacterial aggregation was monitored by measuring the optical density at 700 nm in intervals of 1 min for 1 h in a spectrophotometer (UVICON 930, Kontron Instruments). For the semi-quantitative high-throughput competition assays, we first determined the allowed pH range for DMBT1pbs1-mediated aggregation of S. gordonii and E. coli by using TBS-TC adjusted with either HCl or NaOH. […] For monitoring competitive effects, we preincubated 20 μl of the DMBT1pbs1 stock solution (20 μg) with 20 μl of the respective substance solutions in 48-well microtiter plates at room temperature (RT) for 2 min. As reference served 20 μl 10% (v/v) DMSO solution in H2O mixed with 20 μl of the solvents of the respective substances. Afterwards, 100 μl of S. gordonii or E. coli (resuspended in TBS-TC or TBS-T, respectively, for the calcium-free assays) solution was added simultaneously to each well using a multichannel pipette. Bacterial aggregation was compared to the reference by visual inspection over a time course of 10 min. The scoring system was: (+++) no difference in aggregation compared to reference. (++) moderate inhibition of aggregation over the entire time course or maximal aggregation delayed by 1-5-min compared to reference; (+) strong inhibition of aggregation over the entire time course or maximal aggregation delayed by 5-10 min compared to reference; (−) complete inhibition of aggregation after 10 min. Each experiment was at least done in triplicate.
Sucrose, maltose, dextrose, and the various salts tested were standard reagents obtained from Merck or Sigma. […] The following substances were obtained from Sigma with catalogue numbers in brackets: heparansulfate (H-7640), chondroitinsulfate B (C-3788), azoxymethane (A-9517), N-nitrosodiethlylamine (N-0258), streptococcus sanguis LTA (L-3765), Staphylococcus aureus LTA (L-2515), Escherichia coli LPS (L-3012), Klebsiella pneumoniae LPS (L-1770), Salmonella typhimurium LPS (L-6511), Salmonella minnesota LPS (chemotype Rd1; L-9391), L-α-phosphatidylcholine (P-279), CUROSURF™ with 80 mg/ml phospholipids from pig surfactant (54 mg/ml phosphatidylcholine and 30-5 mg/ml D-palmitoylphosphatidylcholine; overall: 99% polar phospholipids and 1% proteins) was obtained from Dey (Napa; Italy), and sIgA was purchased from Sigma. The dNTPs and the dNTP-Mix were from Roche Diagnostics. The DNA used in all experiments was the 4.7-kb plasmid pEGFP-N1 from Clontech.

[1] = target: T2, human recombinant DMBT1 (rDMBT1) (Homo sapiens, UniProt Q9UGM3, G1295S/L1336F/T649M); test: Turbidometric competition assay, rDMBT1-mediated Streptococcus gordonii aggregation; format: binding; conditions: 0.32% to 2.50% (w/v) DSS; 0.28% to 0.84% degraded carrageenan; rDMBT1 15 μg/ml
T2 construct: made in house; purified from culture supernatant
T2 sequence (Q9UGM3 20-2413 T649M/G1295S/L1336F): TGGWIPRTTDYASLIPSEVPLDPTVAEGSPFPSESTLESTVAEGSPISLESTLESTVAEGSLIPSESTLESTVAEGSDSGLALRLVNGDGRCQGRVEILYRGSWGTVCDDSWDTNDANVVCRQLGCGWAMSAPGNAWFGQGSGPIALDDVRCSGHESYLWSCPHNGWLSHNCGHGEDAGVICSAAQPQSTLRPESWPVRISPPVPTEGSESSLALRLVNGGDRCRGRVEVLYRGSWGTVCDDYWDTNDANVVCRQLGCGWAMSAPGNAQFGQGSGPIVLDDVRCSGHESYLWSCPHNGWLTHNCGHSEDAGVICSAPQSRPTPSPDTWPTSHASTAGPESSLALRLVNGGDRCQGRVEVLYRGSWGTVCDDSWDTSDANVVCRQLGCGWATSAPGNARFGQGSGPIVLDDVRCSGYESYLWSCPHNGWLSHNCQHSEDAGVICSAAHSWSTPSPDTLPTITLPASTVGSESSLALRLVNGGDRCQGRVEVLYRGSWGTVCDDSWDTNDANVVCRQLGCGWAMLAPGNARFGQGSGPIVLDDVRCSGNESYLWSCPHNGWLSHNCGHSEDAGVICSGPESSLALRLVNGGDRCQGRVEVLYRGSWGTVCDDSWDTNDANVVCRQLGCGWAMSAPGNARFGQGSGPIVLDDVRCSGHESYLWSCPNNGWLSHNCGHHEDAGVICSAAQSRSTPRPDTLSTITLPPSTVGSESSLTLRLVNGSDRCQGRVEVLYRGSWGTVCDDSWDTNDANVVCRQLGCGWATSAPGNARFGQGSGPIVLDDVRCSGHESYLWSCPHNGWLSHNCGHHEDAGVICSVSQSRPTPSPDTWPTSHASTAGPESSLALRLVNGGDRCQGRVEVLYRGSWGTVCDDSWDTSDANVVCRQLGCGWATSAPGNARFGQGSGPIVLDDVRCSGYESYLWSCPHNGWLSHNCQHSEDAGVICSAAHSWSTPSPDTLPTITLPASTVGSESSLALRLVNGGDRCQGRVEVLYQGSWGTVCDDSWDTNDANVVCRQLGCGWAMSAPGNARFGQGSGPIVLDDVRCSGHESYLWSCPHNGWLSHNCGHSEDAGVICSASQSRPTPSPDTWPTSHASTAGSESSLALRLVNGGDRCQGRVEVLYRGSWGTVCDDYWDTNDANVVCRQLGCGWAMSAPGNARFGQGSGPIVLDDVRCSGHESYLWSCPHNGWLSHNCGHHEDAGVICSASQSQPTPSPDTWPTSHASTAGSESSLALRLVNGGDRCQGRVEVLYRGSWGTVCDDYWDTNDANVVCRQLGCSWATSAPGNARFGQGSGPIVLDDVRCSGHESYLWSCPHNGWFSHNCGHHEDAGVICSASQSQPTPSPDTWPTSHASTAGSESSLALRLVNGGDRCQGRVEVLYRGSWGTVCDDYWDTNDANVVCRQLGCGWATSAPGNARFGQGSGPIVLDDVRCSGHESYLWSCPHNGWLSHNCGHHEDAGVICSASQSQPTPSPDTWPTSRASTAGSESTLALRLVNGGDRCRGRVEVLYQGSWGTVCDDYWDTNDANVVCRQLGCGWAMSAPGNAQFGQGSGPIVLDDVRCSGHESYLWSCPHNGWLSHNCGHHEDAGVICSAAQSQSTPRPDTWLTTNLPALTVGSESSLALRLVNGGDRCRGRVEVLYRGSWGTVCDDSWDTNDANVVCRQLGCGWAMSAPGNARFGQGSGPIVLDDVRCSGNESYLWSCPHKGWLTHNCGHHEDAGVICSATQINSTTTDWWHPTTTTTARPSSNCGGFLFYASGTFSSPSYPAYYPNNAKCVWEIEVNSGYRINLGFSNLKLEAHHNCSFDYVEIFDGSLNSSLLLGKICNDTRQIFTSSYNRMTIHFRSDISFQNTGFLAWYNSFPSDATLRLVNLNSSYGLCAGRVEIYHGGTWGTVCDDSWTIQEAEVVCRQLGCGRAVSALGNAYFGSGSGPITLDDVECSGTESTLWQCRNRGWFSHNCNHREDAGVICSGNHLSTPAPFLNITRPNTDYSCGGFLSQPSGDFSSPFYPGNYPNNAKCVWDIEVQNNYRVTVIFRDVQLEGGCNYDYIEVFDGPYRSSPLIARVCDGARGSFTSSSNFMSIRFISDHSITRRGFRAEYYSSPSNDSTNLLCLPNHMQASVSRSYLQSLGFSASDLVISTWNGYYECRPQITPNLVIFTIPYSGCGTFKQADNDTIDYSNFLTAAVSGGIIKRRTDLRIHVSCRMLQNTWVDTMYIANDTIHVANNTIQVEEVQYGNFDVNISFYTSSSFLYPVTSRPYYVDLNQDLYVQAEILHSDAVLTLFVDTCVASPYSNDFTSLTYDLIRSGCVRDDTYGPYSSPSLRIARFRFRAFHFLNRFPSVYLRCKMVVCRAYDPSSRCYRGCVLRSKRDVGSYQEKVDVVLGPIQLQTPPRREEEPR
Procedure: (§1) Streptococcus gordonii (strain: […]) was cultured under anaerobic conditions as described before^17, harvested by centrifugation at 3,000 g, washed twice with PBS containing 10 mM EDTA and once with PBS and finally resuspended in PBS to a final OD700 of 2.0 corresponding to about 2.0×10^9 cells/ml, respectively.
(§2) Competition assays were carried out in a final volume of 500 μl at RT. Streptococcus gordonii (250 μl in PBS) was mixed with 100 μl synthetic peptide DMBT1-SRCRP2 diluted 1:1 in PBS (final concentration in the assay: 100 μg/ml) or 100 μl purified rDMBT1 in PBS (final concentration in the assay: 15 μg/ml) and 150 μl of the respective competitor stock solutions, so that the final concentrations ranged from 0.32% to 2.50% (w/v) DSS and 0.28% to 0.84% […] degraded carrageenan. Samples with 0.0% competitor served as controls. The samples were placed in a spectrophotometer (Anthelie; SECOMAN, France) and the OD700-value was measured in intervals of 3 minutes. Each experiment was at least done in triplicate. For the DSS competition studies, we used the same DSS as in the animal experiments (Mr=36-50 kDa; ICN Biomedicals Aurora). High molecular weight lambda carrageenan was obtained from Sigma (Taufkirchen; Germany). […]

DMBT1-SRCRP2 = target: T3, DMBT1-SRCRP2 (Homo sapiens, UniProt Q9UGM3); test: Turbidometric competition assay, DMBT1-SRCRP2-mediated bacterial aggregation; format: binding; conditions: 0.32% to 2.50% (w/v) DSS; 0.28% to 0.84% degraded carrageenan; peptide 100 μg/ml
T3 construct: purity >85%); purchased Eurogentec (Belgium); host or cells: chemical synthesis
Procedure: as §1, §2

human rDMBT1 = target: T4, human rDMBT1 (Homo sapiens, UniProt Q9UGM3, G1295S/L1336F/T649M); test: Binding of human rDMBT1 to immobilized DSS and degraded lambda carrageenan; conditions: rDMBT1 10 μg/ml; immobilized substance
T4 construct: made in house; purified from culture supernatant
T4 sequence (Q9UGM3 20-2413 T649M/G1295S/L1336F): as above
Procedure: DSS was serially diluted in coating buffer (100 mM carbonate buffer, pH 9.6) to obtain final concentrations of 2.5% to 0.02% (w/v). One hundred μl of the samples were applied onto ELISA plates (Microlon, F-Form; Greiner, Germany) and coating was done at 4° C. for 16 h. Acid hydrolyzed and pH-adjusted lambda carrageenan was serially diluted with the solvent (approximately 50 mM HCl and 50 mM NaOH) to obtain concentrations ranging from 2.8% to 0.0055% […] and coating of ELISA plates was done at 37° C. for 2 h. After coating and three washes with TBS containing 0.1% (v/v) Tween 20 (TBS-T), rDMBT1 (10 μg/ml in TBS-T) was added to each well and incubated at 37° C. for 1 h. The wells were then washed five times with 200 μl TBS-T, incubated at 37° C. for 1 h with the DMBT1-specific mouse monoclonal antibody anti(A2) gp-340 (Hyb213-06; Antibody-Shop; dilution 1:10,000 in TBS-T), washed again five-times with TBS-T, and incubated at 37° C. for 1 h with a rabbit anti-mouse IgG-HRP conjugate (Jackson; dilution 1:10,000 in TBS-T). Subsequent to five washes with TBS-T, 150 μl substrate (125 μg/ml 3,3′,5′-Tetramethyl-benzidine; in 0.1 M citrate buffer pH 4.5 with 0.05% (v/v) H2O2) were added, and after incubation at RT for 10-15 min the reaction was stopped by addition of […] 2 M HCl. The intensity of the dye reaction was measured at 450 nm in an ELISA reader (EL800; Bio-Tec Instruments Inc.). […]

[2] = target: T5, rDMBT1 binding to HIV-gp120 (Homo sapiens, UniProt Q9UGM3, G1295S/L1336F/T649M); test: Effects of DSS and dextran on rDMBT1 binding to HIV-gp120; conditions: 100 μg/ml DSS or dextran; rDMBT1 2 μg/ml; gp120 1 μg/ml
T5 construct: made in house; host or cells: rDMBT1 from T-REx-CHO
Excerpt: Values are means of five independent experiments.

DMBT1 = target: T6, DMBT1 (Homo sapiens, UniProt Q9UGM3); test: Binding of DMBT1/rDMBT1 to immobilized candidate substances (ELISA); conditions: substance immobilized; DMBT1 or rDMBT1 10 μg/ml
T6 construct: was obtained from parotid saliva of healthy volunteer donors collected with Lashley cups; from tissue; host or cells: parotid saliva of healthy volunteer donors, purified to about 95% homogeneity
Procedure: For the peptide binding studies we used, unless otherwise indicated, 20 μg/ml peptide in a total volume of 100 μl (dilution in coating buffer, 100 mM carbonate buffer, pH 9.6) for the coating of high affinity ELISA plates (Microlon, Fluotrac 600; Greiner). When immobilizing rDMBT1, purified, partially purified DMBT1 or substances to be tested, we applied serial dilutions in coating buffer onto the plates. Coating was done at 4° C. for 16 h and was followed by three washes with PBS-T with 1 mM CaCl2 (PBS-TC). For the analysis of bacterial binding to immobilized peptides or protein, we incubated the wells with 100 μl bacterial solution at 37° C. for 2 h. After removal of unbound bacteria, 100 μl of SYTO-9 solution (Molecular Probes), which is a cell-permeable fluorescent DNA dye, was added, plates were incubated in the dark for 15 min and after three washes with PBS-TC, fluorescence was measured by determination of the emission at 535 nm with a microtiter plate reader (488 n=excitation; Fluostar Galaxy, BMG Laboratories). DNA binding to immobilized DMBT1 was analyzed by using the same plasmid (LPS-free preparation) as used for the competitive aggregation and transfection assays (see below). Bound DNA was detected analogous to detection of bacteria except for using SYTQ-13 as dye. […]

Row | Substance | Aggregation of E. coli (DMBT1pbs1; substance 0.05 mg/ml) | Aggregation of S. gordonii (DMBT1pbs1; substance 0.05 mg/ml) | Aggregation of S. gordonii (DMBT1pbs1; substance 0.1 mg/ml) | Inhibitory effects on rDMBT1-mediated Streptococcus gordonii aggregation [1] | Inhibitory effects on bacterial aggregation mediated by DMBT1-SRCRP2 (DMBT1-SRCRP2) | direct interaction with human DMBT1 (competition and binding studies in vitro) (human rDMBT1) | Aggregation of E. coli (DMBT1pbs1; substance 10-50 mg/ml) | Aggregation of S. gordonii (DMBT1pbs1; substance 10-50 mg/ml) | inhibition of rDMBT1 binding to immobilized HIV-gp120 [2] | binding to DMBT1 (DMBT1)
1 | Degraded lambda-carrageenan | +++ | ++ | + | Inhibitory effects | Inhibitory effects | directly interacted |  |  |  | 
2 | Dextran sulfate sodium [Dextran sulfate sodium (DSS)] |  |  |  | Inhibitory effects | Inhibitory effects | directly interacted | − | − | exerted an inhibitory effect | 
3 | lipopolysaccharide [LPS] |  |  |  |  |  |  |  |  |  | showed binding to DMBT1
4 | lipoteichoic acid [LTA] |  |  |  |  |  |  |  |  |  | showed binding to DMBT1
